Patent US20060293242A1, “Transporting of taxoid derivatives through the blood brain barrier” (priority 2001, published 2006)
Residues, ends and D or L forms follow the SMILES beside them. *: point of attachment. Paclitaxel(2'-O-succinyl) = CC(=O)O[C@H]1C(=O)[C@@]2(C)[C@H]([C@H](OC(=O)c3ccccc3)[C@]3(O)C[C@H](OC(=O)[C@H](OC(=O)CCC(=O)*)[C@@H](NC(=O)c4ccccc4)c4ccccc4)C(C)=C1C3(C)C)[C@]1(OC(C)=O)CO[C@@H]1C[C@@H]2O

Assays:
[1] = test system: MCF-7 (breast cancer) cells; assay: Cytotoxicity assay (MTT), MCF-7 cells; format: cell-based; conditions: Homo sapiens, MCF7, MTT test, read-out: IC50 (concentration resulting in 50% inhibition of growth)
Description: (§1) 9 L (glioblastome), MCF-7 and MDA-MB-435 (breast cancer), and SK-N-SH (neuroblastome) cells were obtained commercially from ATCC. The cells are seeded at approximately 10^4 cells per well, 24 h before addition of the products. They are then at 60-80% confluence on the day of the experiment. The cells are maintained in culture at 37° C. in an atmosphere at 95% humidity and 5% CO2 in an OptiMem® medium.
(§2) The cells are incubated either with free Taxol or with the vectorized Taxol at increasing concentrations for 48 hours to 72 hours. At the end of the culturing period, MTT (3-(4,5-dimethylthiazole-2-yl)-2,5-diphenyltetrazolium bromide) is added to the wells and the culture plates are then incubated for 4 hours in an incubator. The resulting crystalline deposit of formazan is then dissolved by addition of 200 μl of DMF/SDS. The optical density (OD) is measured at 550 nm (reference 630 nm) using a microplate reader. […]
(§3) The sensitivity of the 9L, MCF-7, MDA-MB-435 and SK-N-SH cells to free Taxol and to the vectorized Taxol was measured by the MTT test under the experimental conditions defined above for which the relationship between the optical density and the number of viable cells is linear.
(§4) These cells are incubated with increasing concentrations of product and, after […] of incubation, cell survival is measured by the MTT test.

[2] = test system: SK-N-SH (neuroblastome) cells; assay: Cytotoxicity assay (MTT), SK-N-SH cells; format: cell-based; conditions: Homo sapiens, MTT test, read-out: IC50 (concentration resulting in 50% inhibition of growth)
Description: as §1, §2, §3, §4

[3] = test system: MDA-MB-435 (breast cancer) cells; assay: Cytotoxicity assay (MTT), MDA-MB-435 cells; format: cell-based; conditions: Homo sapiens, MTT test, read-out: IC50 (concentration resulting in 50% inhibition of growth)
Description: as §1, §2, §3, §4

[4] = test system: 9 L (glioblastome) cells; assay: Cytotoxicity assay (MTT), 9L cells; format: cell-based; conditions: for IC50: 9L cells, MTT test, read-out: IC50 (concentration resulting in 50% inhibition of growth)
Description: as §1
The cells are incubated either with free Taxol or with the vectorized Taxol at increasing concentrations for 48 hours to 72 hours. At the end of the culturing period, MTT (3-(4,5-dimethylthiazole-2-yl)-2,5-diphenyltetrazolium bromide) is added to the wells and the culture plates are then incubated for 4 hours in an incubator. The resulting crystalline deposit of formazan is then dissolved by addition of 200 μl of DMF/SDS. The optical density (OD) is measured at 550 nm (reference 630 nm) using a microplate reader.
Graphic representation of the percentages of OD of the treated wells as a function of the concentration of products makes it possible to determine the IC50. This corresponds to the concentration of the product which inhibits 50% of growth.
as §3, §4

[5] = physchem
[6] = test system: blood/brain barrier; assay: In situ brain perfusion (BBB penetration, Kin); format: in vivo; conditions: mouse, in situ brain perfusion for 60 seconds in buffer, 14C-labelled Taxol, FIG. 2
Description: Mice (20-25 g, Iffa-Credo, Arbresle, France) are anesthetized. After exposure of the common carotid, the right external carotid artery is ligated at the level of the bifurcation with the internal carotid and the common carotid is ligated between the heart and the site of implantation of the catheter (polyethylene catheter, ID: 0.76). This catheter, prefilled with a solution of heparin (100 units/ml), is inserted into the common carotid. The mice are perfused with the perfusion buffer (128 mM NaCl, 24 mM NaHCO3, 4.2 mM KCl, 2.4 mM NaH2PO4, 1.5 mM CaCl2, 0.9 mM MgSO4 and 9 mM D-glucose) This buffer is filtered and then a mixture containing 95% 02/5% CO2 is bubbled in order to maintain the pH close to 7.4 and to provide the brain with oxygen during the perfusion.
The mice are perfused with the buffer containing free Taxol or vectorized Taxol. In each product, the Taxol is radiolabeled with carbon 14 (specific activity: 55 mCi/mmole, Sigma, France). Just before the beginning of perfusion, the heart is stopped by sectioning the ventricles, in order to avoid reflux of the perfusate during perfusion. The right hemisphere is then perfused at a rate of 10 ml/min for 60 seconds, after which the mouse is decapitated. The amount of radioactivity in the right hemisphere is then measured and the brain penetration (Kin) is calculated. […]

Compound	IC50 [1]	IC50 [2]	IC50 [3]	IC50 [4]	solubility [5]	times more active than the free Taxol ([4]; 9 L cell line, ratio of IC50)	increase of passage into the brain (Kin) versus free Taxol [6]
CC(=O)O[C@H]1C(=O)[C@@]2(C)[C@H]([C@H](OC(=O)c3ccccc3)[C@]3(O)C[C@H](OC(=O)[C@H](O)[C@@H](NC(=O)c4ccccc4)c4ccccc4)C(C)=C1C3(C)C)[C@]1(OC(C)=O)CO[C@@H]1C[C@@H]2O [Free Taxol, paclitaxel]	42 nM	87 nM	95 nM	3500 nM			
CC(=O)O[C@H]1C(=O)[C@@]2(C)[C@H]([C@H](OC(=O)c3ccccc3)[C@]3(O)C[C@H](OC(=O)[C@H](OC(=O)CCC(=O)N[C@@H](CCCNC(=N)N)C(=O)N[C@@H](CCCNC(=N)N)C(=O)N[C@@H](CC(C)C)C(=O)N[C@@H](CO)C(=O)N[C@@H](Cc4ccc(O)cc4)C(=O)N[C@@H](CO)C(=O)N[C@@H](CCCNC(=N)N)C(=O)N[C@@H](CCCNC(=N)N)C(=O)N[C@@H](CCCNC(=N)N)C(=O)N[C@@H](Cc4ccccc4)C(=O)O)[C@@H](NC(=O)c4ccccc4)c4ccccc4)C(C)=C1C3(C)C)[C@]1(OC(C)=O)CO[C@@H]1C[C@@H]2O [Taxol-SynB3] ({Paclitaxel(2'-O-succinyl)}-RRLSYSRRRF-OH; N-terminus and C-terminus assumed)				600 nM	> 10000 µg/mL	approximately 5 times	approximately 12 fold
